Reference: PMC12332667, “Role of Structural Modifications in Peptidomimetic Compounds as Potential Antimicrobial Agents against Staphylococcus aureus and Streptococcus pyogenes: Balancing Bioavailability, Safety, and Antimicrobial Activity” (ACS Omega, 2025)
Values after ≈ are worked out from the molar mass of the structure shown. Values joined by “and” are separate entries in the source; they are usually repeats but may differ in a detail not shown here. Identical values can stand only once.

Experiments:
S. aureus ATCC 43300 = assay: MIC/MBC broth microdilution, S. aureus; format: cell-based, Staphylococcus aureus; details: S. aureus
S. pyogenes ATCC 19615 = assay: MIC/MBC broth microdilution, S. pyogenes; format: cell-based, Streptococcus pyogenes; details: S. pyogenes
Summary of the method: (§1)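 BHI broth microdilution (NCCLS); ~10^5 CFU/mL; 37 °C, 18 h. MIC = lowest conc., no visible growth (≥90% vs untreated). MBC = ≤3 colonies, ≥99.9% kill. Water/DMSO/EtOH solvent controls; technical triplicate ×3 biological repeats.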

S. cohnii c.i. = assay: MIC/MBC broth microdilution, S. cohnii; format: cell-based, Staphylococcus cohnii
Summary of the method: as §1

E. faecalis c.i. = assay: MIC/MBC broth microdilution, E. faecalis; format: cell-based, Enterococcus faecalis
Summary of the method: as §1

S. schleiferi c.i. = assay: MIC/MBC broth microdilution, S. schleiferi; format: cell-based, Staphylococcus schleiferi
Summary of the method: as §1

S. agalactiae ATCC 27956 = assay: MIC/MBC broth microdilution, S. agalactiae; format: cell-based, Streptococcus agalactiae; details: S. agalactiae
Summary of the method: as §1

S. mutans c.i. = assay: MIC/MBC broth microdilution, S. mutans; format: cell-based, Streptococcus mutans
Summary of the method: as §1

E. coli ATCC 25922 = assay: MIC/MBC broth microdilution, E. coli; format: cell-based, Escherichia coli
Summary of the method: as §1

P. vulgaris ATCC 6896 = assay: MIC/MBC broth microdilution, P. vulgaris; format: cell-based, Proteus vulgaris
Summary of the method: as §1

[1] = system: K. pneumoniae ATCC 700603; assay: MIC/MBC broth microdilution, K. pneumoniae; format: cell-based
Summary of the method: as §1

P. aeruginosa ATCC 10145 = assay: MIC/MBC broth microdilution, P. aeruginosa; format: cell-based
Summary of the method: as §1

[2] = Hydrophobicity by reverse-phase chromatography; format: physicochemical; details: acetonitrile content in the mobile phase at the retention time
Source text: Reverse-phase chromatography was employed to assess the hydrophobicity characteristics of the peptidomimetics. Hydrophobicity was quantified by determining the acetonitrile content in the mobile phase at the retention time of a peptidyl derivative (Table S2). The least hydrophobic compound (40% acetonitrile) was A-198, which aligns with the calculations of hydrophobicity by SwissADME and pkCSM (Table ). Next in the hydrophobicity sequence were A-197, A-220, A-219, A-174, and A-221, eluting with 42.5-43.9% of acetonitrile. Then there were followed by […], and A-179, with the acetonitrile percentage of 44.8-49.8. The compounds A-176, A-20, A-152, A-134, and A-210 needed over 50% of acetonitrile to be eluted from the column.

[3] = system: immortalized human keratinocytes (HaCaT); assay: LDH cytotoxicity test, keratinocytes; format: cell-based
Summary of the method: (§2)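 Cytotoxicity as LDH release after 48 h serum-free treatment (50, 100, 150 μg/mL peptidomimetics) of 46BR.1N fibroblasts or HaCaT keratinocytes seeded at 5000 per well. Absorbance 450 nm; untreated set as 0% and Triton X-100 1% as maximal release; Mann–Whitney U test, p ≤ 0.05.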

fibroblasts (46BR.1N) = assay: LDH cytotoxicity test, fibroblasts; format: cell-based
Summary of the method: as §2

[4] = system: immortalized human HaCaT keratinocytes; assay: XTT cell proliferation assay, keratinocytes; format: cell-based; details: for effect on proliferation, in words: 48 and 72 h, 0.01–150 μg/mL
Summary of the method: (§3)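 Proliferation was read as XTT absorbance at 490 nm after 4 h of reagent incubation, following 48 or 72 h of peptide exposure in serum-free HG-DMEM (37 °C, 5% CO2). The 72 h arm included a half-medium change with second peptide dose at 48 h. Significance by Mann–Whitney U, p ≤ 0.05.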

[5] = system: human dermal fibroblast cell line (46BR.1N); assay: XTT cell proliferation assay, fibroblasts; format: cell-based; details: for effect on proliferation, in words: 48 and 72 h, 0.01–150 μg/mL
Summary of the method: as §3

S. intemrdius c.i. = assay: MIC/MBC broth microdilution, S. intermedius; format: cell-based, Staphylococcus intermedius
Summary of the method: as §1

[6] = 48 h, 50, 100 and 150 μg/mL, vs 1% Triton X-100
[7] = A-196 0.01–10 μg/mL, A-219 above 0.1 μg/mL, A-213 lower concentrations

In the case of C=CCC(=O)NC[C@@H](NC(=O)[C@H](CC(C)C)NC(=O)[C@H](CCCNC(=N)N)NC(=O)OCc1ccccc1)C(C)C [Compound A-209], the MIC (S. aureus ATCC 43300; H2O) is reported as > 512 µg/mL, the MIC (S. aureus ATCC 43300; water additive DMSO) is reported as > 512 µg/mL and the MIC (S. aureus ATCC 43300; water additive EtOH) is reported as > 512 µg/mL. The MIC (S. pyogenes ATCC 19615; H2O) was > 512 µg/mL, the MIC (S. pyogenes ATCC 19615; water additive DMSO) was > 512 µg/mL and the MIC (S. pyogenes ATCC 19615; water additive EtOH) was > 512 µg/mL. For the same compound, the MIC (S. cohnii c.i.; H2O) was > 512 µg/mL, the MIC (S. cohnii c.i.; water additive DMSO) was > 512 µg/mL and the MIC (S. cohnii c.i.; water additive EtOH) was > 512 µg/mL. The MIC (E. faecalis c.i.; H2O) was > 512 µg/mL, the MIC (E. faecalis c.i.; water additive DMSO) was > 512 µg/mL and the MIC (E. faecalis c.i.; water additive EtOH) was > 512 µg/mL. For the same compound, the MBC (S. schleiferi c.i.; H2O) was 512 µg/mL (≈ 892 µM), the MIC (S. schleiferi c.i.; H2O) was 256 µg/mL (≈ 446 µM) and the MBC (S. schleiferi c.i.; water additive DMSO) was 512 µg/mL (≈ 892 µM). It also gave an MIC (S. schleiferi c.i.; water additive DMSO) of 256 µg/mL (≈ 446 µM), an MBC (S. schleiferi c.i.; water additive EtOH) of 512 µg/mL (≈ 892 µM) and an MIC (S. schleiferi c.i.; water additive EtOH) of 256 µg/mL (≈ 446 µM). For the same compound, the MIC (S. agalactiae ATCC 27956; H2O) was > 512 µg/mL, the MIC (S. agalactiae ATCC 27956; water additive DMSO) was > 512 µg/mL and the MIC (S. agalactiae ATCC 27956; water additive EtOH) was > 512 µg/mL. For the same compound, the MBC (S. mutans c.i.; H2O) was 256 µg/mL (≈ 446 µM), the MBC (S. mutans c.i.; water additive DMSO) was 256 µg/mL (≈ 446 µM) and the MBC (S. mutans c.i.; water additive EtOH) was 256 µg/mL (≈ 446 µM). The MIC (E. coli ATCC 25922; H2O) was > 512 µg/mL, the MIC (E. coli ATCC 25922; water additive DMSO) was > 512 µg/mL and the MIC (E. coli ATCC 25922; water additive EtOH) was > 512 µg/mL. The MIC (P. vulgaris ATCC 6896; H2O) was > 512 µg/mL, the MIC (P. vulgaris ATCC 6896; water additive DMSO) was > 512 µg/mL and the MIC (P. vulgaris ATCC 6896; water additive EtOH) was > 512 µg/mL. For the same compound, the MIC ([1]; H2O) was > 512 µg/mL, the MIC ([1]; water additive DMSO) was > 512 µg/mL and the MIC ([1]; water additive EtOH) was > 512 µg/mL. The MIC (P. aeruginosa ATCC 10145; H2O) was > 512 µg/mL, the MIC (P. aeruginosa ATCC 10145; water additive DMSO) was > 512 µg/mL and the MIC (P. aeruginosa ATCC 10145; water additive EtOH) was > 512 µg/mL. The “% AcCN (acetonitrile required for elution from the column)” value [2] was 49.6% and 44.8–49.8%, the “cytotoxicity (LDH)” value [3, 6] was 10–15% and the “concentration at which cytotoxic effect starts” value ([3]; LDH, 48 h) was > 150 µg/mL and 150 µg/mL. For the same compound, the “cytotoxicity (LDH)” value (fibroblasts (46BR.1N); [6]) was 10–15%, the “concentration at which cytotoxic effect starts” value (fibroblasts (46BR.1N); LDH, 48 h) was > 150 µg/mL and 150 µg/mL and the “effect on proliferation, in words” value ([4]; XTT) was “did not exert any negative impact”. For the same compound, the “effect on proliferation, in words” value ([5]; XTT) was “did not exert any negative impact”.

In the case of CC[C@@H](CNC(=O)/C=C/c1ccccc1)NC(=O)[C@H](CC(C)C)NC(=O)[C@H](CCCNC(=N)N)NC(=O)OCc1ccccc1 [Compound A-213], the MBC (E. faecalis c.i.; H2O) is reported as 256 µg/mL (≈ 412 µM), the MIC (E. faecalis c.i.; H2O) is reported as 256 µg/mL (≈ 412 µM) and the MBC (E. faecalis c.i.; water additive DMSO) is reported as 256 µg/mL (≈ 412 µM). For the same compound, the MIC (E. faecalis c.i.; water additive DMSO) was 256 µg/mL (≈ 412 µM), the MBC (E. faecalis c.i.; water additive EtOH) was 256 µg/mL (≈ 412 µM) and the MIC (E. faecalis c.i.; water additive EtOH) was 256 µg/mL (≈ 412 µM). For the same compound, the MBC (S. schleiferi c.i.; H2O) was 32 µg/mL (≈ 51.5 µM), the MIC (S. schleiferi c.i.; H2O) was 32 µg/mL (≈ 51.5 µM) and the MBC (S. schleiferi c.i.; water additive DMSO) was 32 µg/mL (≈ 51.5 µM). The MIC (S. schleiferi c.i.; water additive DMSO) was 16 µg/mL (≈ 25.7 µM), the MBC (S. schleiferi c.i.; water additive EtOH) was 32 µg/mL (≈ 51.5 µM) and the MIC (S. schleiferi c.i.; water additive EtOH) was 32 µg/mL (≈ 51.5 µM). The MIC (S. intemrdius c.i.; H2O) was 32 µg/mL (≈ 51.5 µM), the MIC (S. intemrdius c.i.; water additive DMSO) was 32 µg/mL (≈ 51.5 µM) and the MIC (S. intemrdius c.i.; water additive EtOH) was 32 µg/mL (≈ 51.5 µM). The MBC (S. mutans c.i.; H2O) was 8 µg/mL (≈ 12.9 µM), the MIC (S. mutans c.i.; H2O) was 4 µg/mL (≈ 6.43 µM) and the MBC (S. mutans c.i.; water additive DMSO) was 8 µg/mL (≈ 12.9 µM). The MIC (S. mutans c.i.; water additive DMSO) was 4 µg/mL (≈ 6.43 µM), the MBC (S. mutans c.i.; water additive EtOH) was 8 µg/mL (≈ 12.9 µM) and the MIC (S. mutans c.i.; water additive EtOH) was 4 µg/mL (≈ 6.43 µM). It also gave an MBC (E. coli ATCC 25922; H2O) of 256 µg/mL (≈ 412 µM), an MIC (E. coli ATCC 25922; H2O) of 256 µg/mL (≈ 412 µM) and an MBC (E. coli ATCC 25922; water additive DMSO) of 512 µg/mL (≈ 823 µM). The MIC (E. coli ATCC 25922; water additive DMSO) was 256 µg/mL (≈ 412 µM), the MBC (E. coli ATCC 25922; water additive EtOH) was 256 µg/mL (≈ 412 µM) and the MIC (E. coli ATCC 25922; water additive EtOH) was 256 µg/mL (≈ 412 µM). The MIC (P. vulgaris ATCC 6896; H2O) was > 512 µg/mL, the MIC (P. vulgaris ATCC 6896; water additive DMSO) was > 512 µg/mL and the MIC (P. vulgaris ATCC 6896; water additive EtOH) was > 512 µg/mL. The MIC ([1]; H2O) was > 512 µg/mL, the MIC ([1]; water additive DMSO) was 512 µg/mL (≈ 823 µM) and the MIC ([1]; water additive EtOH) was 512 µg/mL (≈ 823 µM). For the same compound, the MIC (P. aeruginosa ATCC 10145; H2O) was 512 µg/mL (≈ 823 µM), the MBC (P. aeruginosa ATCC 10145; water additive DMSO) was 512 µg/mL (≈ 823 µM) and the MIC (P. aeruginosa ATCC 10145; water additive DMSO) was 256 µg/mL (≈ 412 µM). For the same compound, the MBC (P. aeruginosa ATCC 10145; water additive EtOH) was 256 µg/mL (≈ 412 µM), the MIC (P. aeruginosa ATCC 10145; water additive EtOH) was 256 µg/mL (≈ 412 µM) and the “% AcCN (acetonitrile required for elution from the column)” value [2] was 54.6%. The “cytotoxicity (LDH) at 150 μg/mL” value ([3]; 48 h, 150 μg/mL) was ~10%, the “cytotoxicity (LDH) at 150 μg/mL” value (fibroblasts (46BR.1N); 48 h, 150 μg/mL) was ~10% and the “pro-proliferative effect above control” value [4, 7] was 20–30%. For the same compound, the “proliferation relative to control at 150 μg/mL (highest tested concentration)” value ([4]; XTT, 150 μg/mL) was “around 25%”, the “effect on proliferation, in words” value ([4]; XTT) was “pro-proliferating effect at lower concentrations followed by an antiproliferative effect at higher concentrations” and the “pro-proliferative effect above control” value [5, 7] was 20–30%. The “proliferation relative to control at 150 μg/mL (highest tested concentration)” value ([5]; XTT, 150 μg/mL) was “around 25%” and the “effect on proliferation, in words” value ([5]; XTT) was “pro-proliferating effect at lower concentrations followed by an antiproliferative effect at higher concentrations”.
